We go through one compound from PMC12721191, “Oxidative hypoxia drives TGF-β1–induced fibrosis under normoxia” (Redox Biology, 2025).

Structures are written as SMILES. pIC50: −log10 of the molar value.

For one experiment, the target named is T1, CYP1A2 (Homo sapiens, UniProt P05177).
T1 sequence (P05177 1-516): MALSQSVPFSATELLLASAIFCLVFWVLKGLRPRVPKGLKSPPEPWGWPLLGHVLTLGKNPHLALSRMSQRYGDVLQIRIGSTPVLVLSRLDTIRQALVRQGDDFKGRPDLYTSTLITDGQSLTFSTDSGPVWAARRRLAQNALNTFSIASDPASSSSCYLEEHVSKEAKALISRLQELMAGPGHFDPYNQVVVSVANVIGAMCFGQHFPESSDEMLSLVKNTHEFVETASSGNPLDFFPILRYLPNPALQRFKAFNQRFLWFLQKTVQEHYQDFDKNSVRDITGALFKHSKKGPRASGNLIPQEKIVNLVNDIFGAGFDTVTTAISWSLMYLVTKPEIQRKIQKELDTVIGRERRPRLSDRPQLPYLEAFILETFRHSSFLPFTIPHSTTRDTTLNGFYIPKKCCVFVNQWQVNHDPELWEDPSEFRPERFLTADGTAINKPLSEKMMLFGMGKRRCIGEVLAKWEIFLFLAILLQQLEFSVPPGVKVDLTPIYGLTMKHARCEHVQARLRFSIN
Kind of experiment: Cytochrome P450 inhibition assay in HLMs. The format is in vitro ADME. As to conditions: Phenacetin O-deethylation, pooled HLMs, up to 50 μM. How it is done: (§1) Cytochrome P450 Inhibition Assay: […] All experiments were performed in triplicate. Phenacetin O-deethylase, coumarin hydroxylase, bupropion hydroxylase, amodiaquine N-deethylase, tolbutamide 4-hydroxylase, S-mephenytoin hydroxylase, dextromethorphan O-demethylase, chlorozoxazone 6-hydroxylase, and midazolam 1’-hydroxylase activities were determined as probe activities for CYP1A2, CYP2A6, CYP2B6, CYP2C8, CYP2C9, CYP2C19, CYP2D6, CYP2E1, and CYP3A, respectively, using cocktail incubation and tandem mass spectrometry, as described previously^2,3.

Another experiment addresses T2, CYP2A6 (Homo sapiens, UniProt P11509).
T2 construct: tissue Xenotech H0630; host or cells: pooled human liver microsomes
T2 sequence (P11509 1-494): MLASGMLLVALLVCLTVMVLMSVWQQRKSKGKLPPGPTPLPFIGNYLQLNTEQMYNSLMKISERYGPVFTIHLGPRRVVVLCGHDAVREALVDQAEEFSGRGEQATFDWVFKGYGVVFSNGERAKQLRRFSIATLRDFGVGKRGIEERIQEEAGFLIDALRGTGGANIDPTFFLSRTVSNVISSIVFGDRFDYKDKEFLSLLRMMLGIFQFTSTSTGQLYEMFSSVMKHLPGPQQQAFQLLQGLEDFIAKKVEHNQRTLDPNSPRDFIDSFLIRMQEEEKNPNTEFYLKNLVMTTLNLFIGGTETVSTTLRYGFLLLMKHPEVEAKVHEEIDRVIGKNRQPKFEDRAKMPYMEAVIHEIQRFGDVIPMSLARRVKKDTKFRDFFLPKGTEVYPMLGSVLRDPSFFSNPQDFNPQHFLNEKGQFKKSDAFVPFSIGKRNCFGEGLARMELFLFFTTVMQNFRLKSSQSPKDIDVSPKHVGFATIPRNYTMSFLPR
Kind of experiment: Cytochrome P450 inhibition assay in HLMs. The format is in vitro ADME. As to conditions: Coumarin 7-hydroxylation, pooled HLMs, up to 50 μM. How it is done: as §1

Consider `COc1ccc(-c2c(-c3ccc(O)c(OC)c3)oc3cc(OC)c(OC)cc3c2=O)cc1` [ACF-2], for which the pIC50 against CYP1A2 and on CYP2A6 was under 4.30 in each case.
